Results published in ChEMBL document CHEMBL1125188, “Synthesis and evaluation of stilbene and dihydrostilbene derivatives as potential anticancer agents that inhibit tubulin polymerization” (J Med Chem, 1991).

Experiments:
Format in all cases: functional
Settings in all cases: Homo sapiens, read-out: ED50 (the source's name)
HT-29 = experiment: Cytotoxic concentration required to inhibit 50% cell growth in HT-29 colon adenocarcinoma cell lines
MLM = experiment: Cytotoxic concentration required to inhibit 50% cell growth in MLM melanoma cell lines
MCF7 = experiment: Cytotoxic concentration required to inhibit 50% cell growth in MCF-7 breast carcinoma cell lines
SK-MEL-5 = experiment: Cytotoxic concentration required to inhibit 50% cell growth in SKMEL-5 melanoma cell lines
A549 = experiment: Cytotoxic concentration required to inhibit 50% cell growth in A-549 lung carcinoma cell lines

SMILES | EC50 (HT-29) | EC50 (MLM) | EC50 (MCF7) | EC50 (SK-MEL-5) | EC50 (A549)
COc1cccc(/C=C/c2cc(OC)c(OC)c(OC)c2)c1 | 7.3 µM | > 25 µM | 12.2 µM | 0.5 µM | 9.8 µM
COc1cc(/C=C/c2ccc(OC)c(OC)c2)cc(OC)c1 [(E)-3,4,3',5'-TETRAMETHOXYSTILBENE] | > 25 µM | > 25 µM | > 25 µM | > 25 µM | > 25 µM
COc1cc(/C=C\c2ccc(O)cc2)cc(OC)c1OC | 1.75 µM | 12.6 µM | 5.7 µM | 2.27 µM | 12.7 µM
COc1cc(CCc2ccncc2)cc(OC)c1OC | > 25 µM | > 25 µM | > 25 µM | > 25 µM | > 25 µM
COc1ccc(CNc2cc(OC)c(OC)c(OC)c2)cc1OC | > 25 µM | > 25 µM | > 25 µM | > 25 µM | > 25 µM
COc1ccc(CNc2cc(OC)cc(OC)c2)cc1 | > 25 µM | > 25 µM | > 25 µM | > 25 µM | > 25 µM
COc1cc(/C=C/c2ccccn2)cc(OC)c1OC | > 25 µM | > 25 µM | > 25 µM | > 25 µM | > 25 µM
COc1ccc(C(=O)Nc2cc(OC)c(OC)c(OC)c2)cc1OC | > 25 µM | > 25 µM | > 25 µM | > 25 µM | > 25 µM
COc1cc(/C=C\c2ccc(O[Si](C)(C)C(C)(C)C)cc2)cc(OC)c1OC | 10.6 µM | 17.2 µM | 7.29 µM | 7.59 µM | 11 µM
COc1cc(/C=C/c2ccc(Cl)cc2)cc(OC)c1OC | > 25 µM | > 25 µM | > 25 µM | > 25 µM | > 25 µM
COc1cc(CCc2ccc(N)cc2)cc(OC)c1OC | 24.6 µM | > 25 µM | 11.9 µM | 12.7 µM | 12.2 µM
COc1cc(NC(=O)c2cc(OC)c(OC)c(OC)c2)cc(OC)c1OC | > 25 µM | > 25 µM | > 25 µM | > 25 µM | > 25 µM
COc1cc(OC)c(/C=C/c2ccccc2)c(OC)c1 | > 25 µM | > 25 µM | > 25 µM | > 25 µM | > 25 µM
COc1cc(/C=C/c2ccc(OC(C)=O)cc2)cc(OC)c1OC | 5.4 µM | 13 µM | 9.6 µM | 4.6 µM | 9.7 µM
COc1cc(/C=C\c2ccncc2)cc(OC)c1OC | 12.9 µM | > 25 µM | 17 µM | 14.4 µM | 14.2 µM
COc1cc(OC)c(OC)cc1CCc1cc(OC)c(OC)c(OC)c1 | > 25 µM | > 25 µM | > 25 µM | > 25 µM | > 25 µM
COc1cc(/C=C/c2ccncc2)cc(OC)c1OC | > 25 µM | > 25 µM | > 25 µM | > 25 µM | > 25 µM
COc1cc(/C=C/c2cc(OC)c(OC)c(OC)c2)cc(OC)c1 | > 25 µM | > 25 µM | > 25 µM | > 25 µM | > 25 µM
COc1cc(CCc2ccccc2)cc(OC)c1OC | > 25 µM | > 25 µM | > 25 µM | > 25 µM | > 25 µM
COc1ccc(NC(=O)c2cc(OC)cc(OC)c2)cc1 | 14.5 µM | > 25 µM | 5.47 µM | 11.9 µM | 9.02 µM
COc1ccc(CCc2ccccc2)c(OC)c1OC | > 25 µM | > 25 µM | > 25 µM | > 25 µM | > 25 µM

SMILES | EC50 (HT-29) | EC50 (MLM) | EC50 (MCF7) | EC50 (SK-MEL-5) | EC50 (A549)
COc1cc(/C=C/c2ccc(Br)cc2)cc(OC)c1OC | 12.7 µM | 5.13 µM | 9.14 µM | 6.53 µM | 6.47 µM
COc1cc(OC)c(OC)cc1/C=C/c1ccccc1 | > 25 µM | > 25 µM | 8.5 µM | > 25 µM | > 25 µM
COc1cc(CCc2ccc(OC)c(OC)c2OC)cc(OC)c1OC | > 25 µM | > 25 µM | > 25 µM | > 25 µM | > 25 µM
COc1ccccc1/C=C/c1cc(OC)c(OC)c(OC)c1 | 12.1 µM | > 25 µM | 18 µM | 13.5 µM | 12.2 µM
COc1cc(OC)c(OC)cc1/C=C/c1cc(OC)c(OC)c(OC)c1 | > 25 µM | > 25 µM | > 25 µM | > 25 µM | > 25 µM
COc1cc(CNc2cc(OC)c(OC)c(OC)c2)cc(OC)c1OC | > 25 µM | > 25 µM | > 25 µM | > 25 µM | > 25 µM
COc1cc(/C=C/c2ccc(O[Si](C)(C)C(C)(C)C)cc2)cc(OC)c1OC | > 25 µM | > 25 µM | > 25 µM | > 25 µM | > 25 µM
COc1cc(/C=C/c2ccc(OC)c(OC)c2OC)cc(OC)c1OC | 10.3 µM | 23.9 µM | 14.7 µM | 10.6 µM | 12.5 µM
COc1ccc(/C=C\c2ccc(OC)c(OC)c2OC)cc1 | 1 µM | 10.9 µM | 0.23 µM | 1.1 µM | 0.97 µM
COc1cc(/C=C/c2cc(OC)c(OC)c(OC)c2)cc(OC)c1OC | > 25 µM | > 25 µM | > 25 µM | > 25 µM | > 25 µM
COc1ccc(C(=O)Nc2cc(OC)c(OC)c(OC)c2)cc1 | > 25 µM | > 25 µM | > 25 µM | > 25 µM | > 25 µM
COc1ccc(/C=C\c2cc(OC)c(OC)c(OC)c2)cc1O [COMBRETASTATIN A4] | 1.2e-05 µM | 1.4e-05 µM | 3.8e-06 µM | – | –
COc1cc(CCc2cc(OC)c(OC)c(OC)c2)cc(OC)c1 | > 25 µM | > 25 µM | > 25 µM | > 25 µM | > 25 µM
COc1cc(CCc2ccc(OC(C)=O)cc2)cc(OC)c1OC | > 25 µM | > 25 µM | > 25 µM | > 25 µM | 19 µM
COc1cc(/C=C/c2ccc([N+](=O)[O-])cc2)cc(OC)c1OC | > 25 µM | > 25 µM | > 25 µM | > 25 µM | > 25 µM
COc1cc(/C=C/c2cccnc2)cc(OC)c1OC | > 25 µM | > 25 µM | > 25 µM | > 25 µM | > 25 µM
COc1ccccc1CCc1cc(OC)c(OC)c(OC)c1 | > 25 µM | > 25 µM | 11.8 µM | 20 µM | 13.5 µM
COc1cc(CCc2cc(OC)c(OC)c(OC)c2)cc(OC)c1OC | > 25 µM | > 25 µM | > 25 µM | > 25 µM | > 25 µM
COc1cc(CCc2ccc(O)cc2)cc(OC)c1OC | > 25 µM | > 25 µM | > 25 µM | > 25 µM | > 25 µM
COc1ccc(/C=C/c2ccccc2)c(OC)c1OC | > 25 µM | > 25 µM | > 25 µM | > 25 µM | > 25 µM
